From ChEMBL document CHEMBL1156829 (Proc Natl Acad Sci U S A, 2008)

How the values were obtained:
Plasmodium falciparum [1] = experiment: NOVARTIS: Inhibition of Plasmodium falciparum 3D7 (drug-susceptible) proliferation in erythrocyte-based infection assay; format: functional, organism-based; conditions: Plasmodium falciparum, 3D7
Plasmodium falciparum [2] = experiment: NOVARTIS: Inhibition of Plasmodium falciparum W2 (drug-resistant) proliferation in erythrocyte-based infection assay; format: functional, organism-based; conditions: Plasmodium falciparum, W2; read-out: EC50
[3] = NOVARTIS: Cytotoxicity against human hepatocellular carcinoma cell line (Huh7); format: toxicity, cell-based, Huh-7; conditions: Huh7 cells (hepatocellular carcinoma cell line)

Structure (SMILES)	EC50 (Plasmodium falciparum [1]) [nM]	EC50 (Plasmodium falciparum [2]) [nM]	CC50 [3] [µM]
CC=C[C@H]1O[C@@](O)([C@@H](C)C(O)C(C)[C@H]2OC(=O)C(OC)=CC(C)=C[C@@H](C)[C@H](O)C(CC)[C@@H](O)[C@H](C)CC(C)=CC=C[C@@H]2OC)C[C@@H](O[C@H]2C[C@@H](O)[C@H](OC(N)=O)[C@@H](C)O2)[C@@H]1C (stereo partly drawn)	1180	> 1250	> 10
CN1CCN(c2ccc(NC(=O)Oc3ccccc3)cc2)CC1	4170	7480	25.4
OCCCNc1cc(-c2ccnc(Nc3cccc(Cl)c3)n2)ccn1	232	186	0.269
COC(=O)c1cccc(NC(=O)/C(=C\c2cccc([N+](=O)[O-])c2)NC(=O)c2ccccc2OC)c1	> 1670	> 814	> 10
COc1ccc2nc(NC(=N)N)nc(C)c2c1	712	867	57.5
CNC(=O)[C@@H]1C[C@@H](NCc2ccc(OC)cc2)CN1Cc1ccccc1	> 1100	> 1250	> 10
O=C(CN1CCN(S(=O)(=O)c2cccc([N+](=O)[O-])c2)CC1)Nc1ccc(OCc2ccccc2)cc1	3910	2650	> 100
CN1CCC(CCNCc2ccc(OCC(O)CN(C)Cc3ccccc3)cc2)CC1 (stereo not drawn)	1110	1080	68.6
C/C(=C\c1csc(C)n1)[C@@H]1C[C@@H]2O[C@]2(C)CCC[C@H](C)[C@H](O)[C@@H](C)C(=O)C(C)(C)[C@@H](O)CC(=O)O1 [PATUPILONE]	4.09	> 1250	> 6.25
Nc1ccc(C(=O)Nc2ccc(-c3nc4ccccc4o3)cc2)cc1	935	893	> 100
Cc1ccc2nc3nc4c(C)cccc4c(N)c3cc2c1	102	157	6.94
CCN1C(=O)c2ccccc2Sc2ccc(NC(=O)NCCCOC(C)C)cc21	> 10000	> 10000	32.1
CC(NCCN1CCNCC1)c1cc(C(C)(C)C)cc2c1CCC2(C)C (stereo not drawn)	598	586	6.72
C[n+]1cccc(CNC2=C(Cl)C(=O)c3ccccc3C2=O)c1	127	213	> 10
CCCC(=O)NC(c1cccc([N+](=O)[O-])c1)c1ccc2cccnc2c1O (stereo not drawn)	320	125	38.8
COc1cccc(C=NNC(=O)c2ccccc2O)c1O	5380	969	6.64
Cc1[nH]c(=O)[nH]c(=O)c1S(=O)(=O)Nc1ccc2oc(-c3ccncc3)nc2c1	> 10000	> 10000	> 100
CCOc1ccc(C(=O)Cn2ccc(=NCc3ccccc3)cc2)cc1[N+](=O)[O-]	69.7	121	20.1
C=CCSc1nc(N)c2c3c(sc2n1)CN(CCC)CC3	623	168	> 100
CC(C)CCn1c(NCc2ccccc2)nc2c1c(=O)n(CC(N)=O)c(=O)n2C	> 1250	1710	> 10
CC(C)N(CC(=O)Nc1cc(C(C)(C)C)nn1-c1ccc(Cl)c(Cl)c1)C(=O)c1ccc(C(F)(F)F)cc1	845	1330	> 10
O=C(NCCc1nc(-c2ccncc2)n[nH]1)C12CC3CC(CC(C3)C1)C2	> 12500	44.9	> 100
CN1CCN=C1c1ccc(NC(=O)c2ccc(C(=O)Nc3ccc(C4=NCCN4C)cc3)c([N+](=O)[O-])c2)cc1	72.5	9.13	> 10
CCOc1ccc(-c2c[n+](-c3ccccc3)c3n2CCS3)cc1	421	228	> 100
CCc1ccc2[nH]c(=O)c(CN(CCCN(CC)CC)C(=S)NCCCN(C)C)cc2c1	2040	664	> 100
CCN(CC)c1ccc(NC(=O)C2Cc3ccccc3CN2S(=O)(=O)c2ccc(F)cc2)cc1 (stereo not drawn)	7430	4530	> 100
